# Experimental data published in paper PMC6874179, “Development of Macrocycle Kinase Inhibitors for ALK2 Using Fibrodysplasia Ossificans Progressiva‐Derived Endothelial Cells” (JBMR Plus, 2019).
# Columns and labels:
# MATK = target: T1, MATK (Homo sapiens, UniProt P42679); experiment: Proqinase Kinase profiling; format: biochemical; conditions: read-out: % inhibition at 100nM
# T1 construct: purchased DiscoverX
# RET_R749T = target: T2, RET_R749T (Homo sapiens, UniProt P07949, R749T); experiment: Proqinase Kinase profiling; format: biochemical; conditions: read-out: % inhibition at 100nM
# T2 construct: purchased DiscoverX
# GRK6 = target: T3, GRK6 (Homo sapiens, UniProt P43250); experiment: Proqinase Kinase profiling; format: biochemical; conditions: read-out: % inhibition at 100nM
# T3 construct: purchased DiscoverX
# CDC42BPA = target: T4, CDC42BPA (Homo sapiens, UniProt Q5VT25); experiment: Proqinase Kinase profiling; format: biochemical; conditions: read-out: % inhibition at 100nM
# T4 construct: purchased DiscoverX
# TTK = target: T5, TTK (Homo sapiens, UniProt P33981); experiment: Proqinase Kinase profiling; format: biochemical; conditions: read-out: % inhibition at 100nM
# T5 construct: purchased DiscoverX
# ABL1_H396P = target: T6, ABL1_H396P (Homo sapiens, UniProt P00519, H396P); experiment: Proqinase Kinase profiling; format: biochemical; conditions: read-out: % inhibition at 100nM
# T6 construct: purchased DiscoverX
# CDK1_cyclinE1 = target: T7, CDK1_cyclinE1 (Homo sapiens, UniProt P06493); experiment: Proqinase Kinase profiling; format: biochemical; conditions: read-out: % inhibition at 100nM
# T7 construct: purchased DiscoverX
# EGFR_G719C = target: T8, EGFR_G719C (Homo sapiens, UniProt P00533, G719C); experiment: Proqinase Kinase profiling; format: biochemical; conditions: read-out: % inhibition at 100nM
# T8 construct: purchased DiscoverX
# AXL = target: T9, AXL (Homo sapiens, UniProt P30530); experiment: Proqinase Kinase profiling; format: biochemical; conditions: read-out: % inhibition at 100nM
# T9 construct: purchased DiscoverX
# EPHA8 = target: T10, EPHA8 (Homo sapiens, UniProt P29322); experiment: Proqinase Kinase profiling; format: biochemical; conditions: read-out: % inhibition at 100nM
# T10 construct: purchased DiscoverX
# PRKCD = target: T11, PRKCD (Homo sapiens, UniProt Q05655); experiment: Proqinase Kinase profiling; format: biochemical; conditions: read-out: % inhibition at 100nM
# T11 construct: purchased DiscoverX
# TEK_Y1108F = target: T12, TEK_Y1108F (Homo sapiens, UniProt Q02763, Y1108F); experiment: Proqinase Kinase profiling; format: biochemical; conditions: read-out: % inhibition at 100nM
# T12 construct: purchased DiscoverX
# BMPR1A = target: T13, BMPR1A (Homo sapiens, UniProt P36894); experiment: Proqinase Kinase profiling; format: biochemical; conditions: read-out: % inhibition at 100nM
# T13 construct: purchased DiscoverX
# PDGFRA_V561D = target: T14, PDGFRA_V561D (Homo sapiens, UniProt P16234, V561D); experiment: Proqinase Kinase profiling; format: biochemical; conditions: read-out: % inhibition at 100nM
# T14 construct: purchased DiscoverX
# panel of 366–468 kinases = experiment: Kinase panel selectivity; format: biochemical; conditions: compound at 100nM
# Source text: Figure 4 ALK2 binding and kinase profile of OD36 and OD52.
# EPHB4 = target: T15, EPHB4 (Homo sapiens, UniProt P54760); experiment: Proqinase Kinase profiling; format: biochemical; conditions: read-out: % inhibition at 100nM
# T15 construct: purchased DiscoverX
# FLT3_ITD = experiment: Proqinase Kinase profiling; format: biochemical
# CSNK2A1 = target: T16, CSNK2A1 (Homo sapiens, UniProt P68400); experiment: Proqinase Kinase profiling; format: biochemical; conditions: read-out: % inhibition at 100nM
# T16 construct: purchased DiscoverX
# CAMK2B = target: T17, CAMK2B (Homo sapiens, UniProt Q13554); experiment: Proqinase Kinase profiling; format: biochemical; conditions: read-out: % inhibition at 100nM
# T17 construct: purchased DiscoverX
# NEK4 = target: T18, NEK4 (Homo sapiens, UniProt P51957); experiment: Proqinase Kinase profiling; format: biochemical; conditions: read-out: % inhibition at 100nM
# T18 construct: purchased DiscoverX
# [1] = tested on: TGF-β-induced CAGA-LUC reporter activity; experiment: TGF-β CAGA-LUC reporter assay in KS483 cells; format: cell-based, mouse; conditions: TGF-β 5 ng/mL 16 hours, compared with LDN-193189
# Description: Compounds were added for 16 hours at 0.5μM before luciferase activity was measured.
# For luciferase reporter assays, cells were seeded in 24-well plates and transfected with DharmaFECT Duo (Fisher Scientific, Landsmeer, The Netherlands), following the recommendations of the manufacturer. 48 hours after transfection the cells were harvested and lysed. […] Each transfection mixture was equalized with empty vector when necessary and every experiment was performed in triplicate.
# VRK1 = target: T19, VRK1 (Homo sapiens, UniProt Q99986); experiment: Proqinase Kinase profiling; format: biochemical; conditions: read-out: % inhibition at 100nM
# T19 construct: purchased DiscoverX
# RET_E762Q = target: T20, RET_E762Q (Homo sapiens, UniProt P07949, E762Q); experiment: Proqinase Kinase profiling; format: biochemical; conditions: read-out: % inhibition at 100nM
# T20 construct: purchased DiscoverX
# MAPKAPK5 = target: T21, MAPKAPK5 (Homo sapiens, UniProt Q8IW41); experiment: Proqinase Kinase profiling; format: biochemical; conditions: read-out: % inhibition at 100nM
# T21 construct: purchased DiscoverX
# DMPK = target: T22, DMPK (Homo sapiens, UniProt Q09013); experiment: Proqinase Kinase profiling; format: biochemical; conditions: read-out: % inhibition at 100nM
# T22 construct: purchased DiscoverX
# CAMK4 = target: T23, CAMK4 (Homo sapiens, UniProt Q16566); experiment: Proqinase Kinase profiling; format: biochemical; conditions: read-out: % inhibition at 100nM
# T23 construct: purchased DiscoverX
# FGFR1_V561M = target: T24, FGFR1_V561M (Homo sapiens, UniProt P11362, V561M); experiment: Proqinase Kinase profiling; format: biochemical; conditions: read-out: % inhibition at 100nM
# T24 construct: purchased DiscoverX
# MAP4K4 = target: T25, MAP4K4 (Homo sapiens, UniProt O95819); experiment: Proqinase Kinase profiling; format: biochemical; conditions: read-out: % inhibition at 100nM
# T25 construct: purchased DiscoverX
# NEK6 = target: T26, NEK6 (Homo sapiens, UniProt Q9HC98); experiment: Proqinase Kinase profiling; format: biochemical; conditions: read-out: % inhibition at 100nM
# T26 construct: purchased DiscoverX
# CSNK1A1 = target: T27, CSNK1A1 (Homo sapiens, UniProt P48729); experiment: Proqinase Kinase profiling; format: biochemical; conditions: read-out: % inhibition at 100nM
# T27 construct: purchased DiscoverX
# MAPK13 = target: T28, MAPK13 (Homo sapiens, UniProt O15264); experiment: Proqinase Kinase profiling; format: biochemical; conditions: read-out: % inhibition at 100nM
# T28 construct: purchased DiscoverX
# MUSK = target: T29, MUSK (Homo sapiens, UniProt O15146); experiment: Proqinase Kinase profiling; format: biochemical; conditions: read-out: % inhibition at 100nM
# T29 construct: purchased DiscoverX
# EPHA1 = target: T30, EPHA1 (Homo sapiens, UniProt P21709); experiment: Proqinase Kinase profiling; format: biochemical; conditions: read-out: % inhibition at 100nM
# T30 construct: purchased DiscoverX
# FGFR3_G697C = target: T31, FGFR3_G697C (Homo sapiens, UniProt P22607, G697C); experiment: Proqinase Kinase profiling; format: biochemical; conditions: read-out: % inhibition at 100nM
# T31 construct: purchased DiscoverX
# DYRK1B = target: T32, DYRK1B (Homo sapiens, UniProt Q9Y463); experiment: Proqinase Kinase profiling; format: biochemical; conditions: read-out: % inhibition at 100nM
# T32 construct: purchased DiscoverX
# NLK = target: T33, NLK (Homo sapiens, UniProt Q9UBE8); experiment: Proqinase Kinase profiling; format: biochemical; conditions: read-out: % inhibition at 100nM
# T33 construct: purchased DiscoverX
# NEK9 = target: T34, NEK9 (Homo sapiens, UniProt Q8TD19); experiment: Proqinase Kinase profiling; format: biochemical; conditions: read-out: % inhibition at 100nM
# T34 construct: purchased DiscoverX
# PRKCH = target: T35, PRKCH (Homo sapiens, UniProt P24723); experiment: Proqinase Kinase profiling; format: biochemical; conditions: read-out: % inhibition at 100nM
# T35 construct: purchased DiscoverX
# HIPK2 = target: T36, HIPK2 (Homo sapiens, UniProt Q9H2X6); experiment: Proqinase Kinase profiling; format: biochemical; conditions: read-out: % inhibition at 100nM
# T36 construct: purchased DiscoverX
# CSK = target: T37, CSK (Homo sapiens, UniProt P41240); experiment: Proqinase Kinase profiling; format: biochemical; conditions: read-out: % inhibition at 100nM
# T37 construct: purchased DiscoverX
# T37 sequence (P41240 whole entry): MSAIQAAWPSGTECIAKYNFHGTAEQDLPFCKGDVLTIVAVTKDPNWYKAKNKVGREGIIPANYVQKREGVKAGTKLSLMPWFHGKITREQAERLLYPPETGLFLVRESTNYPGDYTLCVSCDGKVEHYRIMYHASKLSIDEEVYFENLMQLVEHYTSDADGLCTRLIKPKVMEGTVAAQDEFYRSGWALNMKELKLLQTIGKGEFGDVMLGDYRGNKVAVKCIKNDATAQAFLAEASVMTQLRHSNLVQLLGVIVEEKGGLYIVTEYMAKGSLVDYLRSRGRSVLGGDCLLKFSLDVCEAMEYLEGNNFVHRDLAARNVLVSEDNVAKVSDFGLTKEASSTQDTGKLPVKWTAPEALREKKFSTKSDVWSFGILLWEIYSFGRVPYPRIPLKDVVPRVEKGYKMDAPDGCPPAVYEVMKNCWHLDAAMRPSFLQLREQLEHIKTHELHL
# T11 sequence (Q05655 whole entry): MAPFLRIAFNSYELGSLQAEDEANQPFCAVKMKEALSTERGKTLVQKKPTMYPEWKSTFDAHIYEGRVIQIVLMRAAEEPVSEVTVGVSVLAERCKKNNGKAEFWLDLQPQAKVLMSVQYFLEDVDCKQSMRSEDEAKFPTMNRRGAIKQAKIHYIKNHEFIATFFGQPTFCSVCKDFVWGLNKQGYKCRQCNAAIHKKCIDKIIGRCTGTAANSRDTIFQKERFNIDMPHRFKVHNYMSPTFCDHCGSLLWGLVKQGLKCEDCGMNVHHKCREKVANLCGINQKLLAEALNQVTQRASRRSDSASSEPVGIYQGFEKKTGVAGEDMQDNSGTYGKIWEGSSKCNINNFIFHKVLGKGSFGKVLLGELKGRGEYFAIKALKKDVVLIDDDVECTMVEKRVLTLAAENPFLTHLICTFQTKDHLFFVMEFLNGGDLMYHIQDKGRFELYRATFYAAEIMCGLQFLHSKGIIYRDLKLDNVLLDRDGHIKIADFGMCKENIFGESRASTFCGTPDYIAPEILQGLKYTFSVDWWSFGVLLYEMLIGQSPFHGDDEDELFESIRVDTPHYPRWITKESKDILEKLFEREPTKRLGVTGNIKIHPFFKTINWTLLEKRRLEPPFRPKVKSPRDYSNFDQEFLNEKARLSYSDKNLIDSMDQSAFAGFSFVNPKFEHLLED
# T22 sequence (Q09013 whole entry): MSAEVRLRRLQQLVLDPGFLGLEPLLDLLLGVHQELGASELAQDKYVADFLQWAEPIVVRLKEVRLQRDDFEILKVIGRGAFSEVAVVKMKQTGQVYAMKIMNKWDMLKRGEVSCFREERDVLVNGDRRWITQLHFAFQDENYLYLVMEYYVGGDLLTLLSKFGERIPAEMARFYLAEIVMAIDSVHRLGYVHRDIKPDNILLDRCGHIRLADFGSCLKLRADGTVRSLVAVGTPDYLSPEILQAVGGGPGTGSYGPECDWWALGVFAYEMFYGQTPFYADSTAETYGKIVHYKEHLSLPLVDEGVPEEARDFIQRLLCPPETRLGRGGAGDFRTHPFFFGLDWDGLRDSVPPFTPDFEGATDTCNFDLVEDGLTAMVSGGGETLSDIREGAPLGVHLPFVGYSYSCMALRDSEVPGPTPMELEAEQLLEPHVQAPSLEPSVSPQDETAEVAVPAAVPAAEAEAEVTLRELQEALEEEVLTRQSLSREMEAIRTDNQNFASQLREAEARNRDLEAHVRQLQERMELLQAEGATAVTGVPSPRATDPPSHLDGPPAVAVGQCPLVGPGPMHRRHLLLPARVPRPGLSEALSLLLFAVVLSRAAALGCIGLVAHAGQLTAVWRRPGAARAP
# T2 sequence (P07949 29-1114 R749T): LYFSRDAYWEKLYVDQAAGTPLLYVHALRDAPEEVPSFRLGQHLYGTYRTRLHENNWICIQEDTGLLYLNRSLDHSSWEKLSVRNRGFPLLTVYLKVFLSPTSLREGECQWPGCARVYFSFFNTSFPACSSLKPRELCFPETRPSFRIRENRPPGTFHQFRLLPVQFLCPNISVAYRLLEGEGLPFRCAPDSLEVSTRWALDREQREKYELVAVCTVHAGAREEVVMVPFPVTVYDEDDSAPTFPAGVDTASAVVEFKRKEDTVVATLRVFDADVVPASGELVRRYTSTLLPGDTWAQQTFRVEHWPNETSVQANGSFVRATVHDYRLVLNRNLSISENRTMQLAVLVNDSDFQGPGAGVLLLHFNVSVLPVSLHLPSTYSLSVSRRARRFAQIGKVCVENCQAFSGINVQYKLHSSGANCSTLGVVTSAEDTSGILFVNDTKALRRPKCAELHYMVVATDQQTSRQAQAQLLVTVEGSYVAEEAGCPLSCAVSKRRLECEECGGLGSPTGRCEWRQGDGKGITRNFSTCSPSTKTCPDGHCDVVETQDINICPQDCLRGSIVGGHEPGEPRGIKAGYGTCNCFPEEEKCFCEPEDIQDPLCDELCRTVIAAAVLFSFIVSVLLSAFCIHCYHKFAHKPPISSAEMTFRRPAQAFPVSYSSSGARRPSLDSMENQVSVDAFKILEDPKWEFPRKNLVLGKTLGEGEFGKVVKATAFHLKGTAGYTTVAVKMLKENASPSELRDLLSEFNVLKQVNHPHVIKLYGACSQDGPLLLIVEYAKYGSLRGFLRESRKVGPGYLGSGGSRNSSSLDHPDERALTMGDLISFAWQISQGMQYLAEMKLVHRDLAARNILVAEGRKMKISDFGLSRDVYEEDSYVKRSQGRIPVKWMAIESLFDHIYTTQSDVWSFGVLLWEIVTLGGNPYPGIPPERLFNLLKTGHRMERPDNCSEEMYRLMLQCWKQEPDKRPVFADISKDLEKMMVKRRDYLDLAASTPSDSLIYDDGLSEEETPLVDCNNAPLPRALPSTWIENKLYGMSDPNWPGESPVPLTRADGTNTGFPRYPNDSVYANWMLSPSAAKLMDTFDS
# T9 sequence (P30530 26-894): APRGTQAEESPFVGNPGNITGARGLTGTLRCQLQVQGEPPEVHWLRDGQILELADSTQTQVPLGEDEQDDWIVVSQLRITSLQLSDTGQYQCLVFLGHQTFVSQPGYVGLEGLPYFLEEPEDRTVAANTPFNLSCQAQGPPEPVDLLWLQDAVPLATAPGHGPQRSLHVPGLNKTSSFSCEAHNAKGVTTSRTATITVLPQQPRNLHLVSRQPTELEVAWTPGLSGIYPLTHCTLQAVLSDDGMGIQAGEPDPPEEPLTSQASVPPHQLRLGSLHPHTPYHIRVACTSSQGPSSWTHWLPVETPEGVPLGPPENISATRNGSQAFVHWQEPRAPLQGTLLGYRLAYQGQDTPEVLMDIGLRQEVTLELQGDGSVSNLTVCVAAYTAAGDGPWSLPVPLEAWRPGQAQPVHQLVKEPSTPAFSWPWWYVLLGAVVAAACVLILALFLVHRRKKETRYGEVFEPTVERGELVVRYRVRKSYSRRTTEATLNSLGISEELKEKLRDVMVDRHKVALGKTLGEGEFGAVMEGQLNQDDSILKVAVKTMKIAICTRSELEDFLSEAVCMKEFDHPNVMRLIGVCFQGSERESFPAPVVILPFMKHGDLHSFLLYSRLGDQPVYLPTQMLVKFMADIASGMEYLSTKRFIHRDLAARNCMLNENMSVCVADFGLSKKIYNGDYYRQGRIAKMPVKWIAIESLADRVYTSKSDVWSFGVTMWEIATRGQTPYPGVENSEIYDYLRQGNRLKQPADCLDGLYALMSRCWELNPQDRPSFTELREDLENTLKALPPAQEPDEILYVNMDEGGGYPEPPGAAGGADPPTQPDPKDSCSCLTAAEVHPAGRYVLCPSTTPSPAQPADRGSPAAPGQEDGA
# T27 sequence (P48729 whole entry): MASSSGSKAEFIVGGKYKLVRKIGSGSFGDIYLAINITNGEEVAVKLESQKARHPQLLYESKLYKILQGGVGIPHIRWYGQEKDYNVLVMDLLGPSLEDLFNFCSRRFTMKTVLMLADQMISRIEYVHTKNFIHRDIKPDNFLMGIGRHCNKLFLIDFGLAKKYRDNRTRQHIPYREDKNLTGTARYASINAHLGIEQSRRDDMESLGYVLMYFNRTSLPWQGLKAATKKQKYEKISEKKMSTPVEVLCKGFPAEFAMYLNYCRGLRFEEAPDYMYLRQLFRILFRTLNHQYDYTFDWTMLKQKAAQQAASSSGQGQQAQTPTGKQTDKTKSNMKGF
# T1 sequence (P42679 whole entry): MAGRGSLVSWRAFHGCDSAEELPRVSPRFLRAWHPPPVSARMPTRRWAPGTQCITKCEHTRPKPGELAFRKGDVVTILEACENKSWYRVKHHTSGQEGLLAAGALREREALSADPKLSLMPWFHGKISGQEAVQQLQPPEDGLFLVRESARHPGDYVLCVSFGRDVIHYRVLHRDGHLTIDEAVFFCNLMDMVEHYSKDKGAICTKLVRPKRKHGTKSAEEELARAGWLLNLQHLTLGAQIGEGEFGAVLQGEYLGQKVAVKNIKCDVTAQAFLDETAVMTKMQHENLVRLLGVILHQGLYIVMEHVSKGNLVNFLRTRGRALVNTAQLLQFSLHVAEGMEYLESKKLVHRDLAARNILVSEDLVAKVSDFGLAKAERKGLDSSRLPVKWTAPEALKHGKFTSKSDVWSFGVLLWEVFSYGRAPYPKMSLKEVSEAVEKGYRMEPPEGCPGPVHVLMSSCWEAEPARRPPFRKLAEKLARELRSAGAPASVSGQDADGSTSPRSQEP
# T21 sequence (Q8IW41 whole entry): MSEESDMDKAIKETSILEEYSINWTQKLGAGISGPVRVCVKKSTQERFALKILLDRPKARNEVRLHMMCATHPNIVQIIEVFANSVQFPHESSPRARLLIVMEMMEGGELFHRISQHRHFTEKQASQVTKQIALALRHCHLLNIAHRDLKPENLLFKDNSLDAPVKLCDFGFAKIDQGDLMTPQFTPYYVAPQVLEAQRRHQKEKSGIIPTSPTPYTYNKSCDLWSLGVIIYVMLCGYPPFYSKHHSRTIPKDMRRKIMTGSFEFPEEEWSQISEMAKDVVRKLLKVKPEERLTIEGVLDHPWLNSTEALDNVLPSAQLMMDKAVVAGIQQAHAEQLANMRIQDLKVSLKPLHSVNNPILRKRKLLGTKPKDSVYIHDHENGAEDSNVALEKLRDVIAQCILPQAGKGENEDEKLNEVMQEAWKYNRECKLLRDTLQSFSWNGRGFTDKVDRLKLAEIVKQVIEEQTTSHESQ
Structure (SMILES),inhibition at 0.1 µM (MATK) [%],inhibition at 0.1 µM (RET_R749T) [%],inhibition at 0.1 µM (GRK6) [%],inhibition at 0.1 µM (CDC42BPA) [%],inhibition at 0.1 µM (TTK) [%],inhibition at 0.1 µM (ABL1_H396P) [%],inhibition at 0.1 µM (CDK1_cyclinE1) [%],inhibition at 0.1 µM (EGFR_G719C) [%],inhibition at 0.1 µM (AXL) [%],inhibition at 0.1 µM (EPHA8) [%],inhibition at 0.1 µM (PRKCD) [%],inhibition at 0.1 µM (TEK_Y1108F) [%],inhibition at 0.1 µM (BMPR1A) [%],inhibition at 0.1 µM (PDGFRA_V561D) [%],Selectivity: % of tested kinases inhibited over 50% (panel of 366–468 kinases) [%],inhibition at 0.1 µM (EPHB4) [%],% inhibition at 100nM (FLT3_ITD) [%],inhibition at 0.1 µM (CSNK2A1) [%],inhibition at 0.1 µM (CAMK2B) [%],inhibition at 0.1 µM (NEK4) [%],other results
Clc1cc2cc(c1)-c1cnn3ccc(nc13)NCCOCCO2 [OD36],9,30,10,15,10,21,8,19,10,11,4,-27,9,-1,4.3,6,36,-7,32,2,Inhibitory effect on TGF-β-induced gene transcription (CAGA-LUC) [1]: significantly less inhibitory effect; inhibition at 0.1 µM (VRK1): -4%; inhibition at 0.1 µM (RET_E762Q): 33%; inhibition at 0.1 µM (MAPKAPK5): 12%; inhibition at 0.1 µM (DMPK): 2%; inhibition at 0.1 µM (CAMK4): -4%; inhibition at 0.1 µM (FGFR1_V561M): 9%; inhibition at 0.1 µM (MAP4K4): 38%; inhibition at 0.1 µM (NEK6): -7%; inhibition at 0.1 µM (CSNK1A1): -6%; inhibition at 0.1 µM (MAPK13): 15%; inhibition at 0.1 µM (MUSK): -1%; inhibition at 0.1 µM (EPHA1): 6%; inhibition at 0.1 µM (FGFR3_G697C): -1%; inhibition at 0.1 µM (DYRK1B): 13%; inhibition at 0.1 µM (NLK): 33%; inhibition at 0.1 µM (NEK9): 1%; inhibition at 0.1 µM (PRKCH): 5%; inhibition at 0.1 µM (HIPK2): 16%; inhibition at 0.1 µM (CSK): -4%
Cc1cc2cc(c1)-c1cnn3ccc(nc13)NCCNC(=O)CCN(C)C2 [OD52],-9,36,-5,-4,-9,-12,-2,-31,10,-6,2,-21,-7,12,0.9,-25,19,3,12,-3,Inhibitory effect on TGF-β-induced gene transcription (CAGA-LUC) [1]: significantly less inhibitory effect; inhibition at 0.1 µM (VRK1): -15%; inhibition at 0.1 µM (RET_E762Q): 19%; inhibition at 0.1 µM (MAPKAPK5): 26%; inhibition at 0.1 µM (DMPK): -5%; inhibition at 0.1 µM (CAMK4): -23%; inhibition at 0.1 µM (FGFR1_V561M): -26%; inhibition at 0.1 µM (MAP4K4): 5%; inhibition at 0.1 µM (NEK6): -12%; inhibition at 0.1 µM (CSNK1A1): 1%; inhibition at 0.1 µM (MAPK13): 3%; inhibition at 0.1 µM (MUSK): -11%; inhibition at 0.1 µM (EPHA1): -1%; inhibition at 0.1 µM (FGFR3_G697C): -10%; inhibition at 0.1 µM (DYRK1B): -6%; inhibition at 0.1 µM (NLK): 1%; inhibition at 0.1 µM (NEK9): -1%; inhibition at 0.1 µM (PRKCH): -20%; inhibition at 0.1 µM (HIPK2): -2%; inhibition at 0.1 µM (CSK): -6%
